IC50 data for twelve compounds are collected here from ChEMBL document CHEMBL1130406, “Ortho-substituted benzofused macrocyclic lactams as zinc metalloprotease inhibitors” (J Med Chem, 1997).

One experiment has as its target Neprilysin (Homo sapiens, UniProt P08473). The experiment can be described thus: Inhibition of neutral endopeptidase.
The next experiment concerns the target T1, Thermolysin (Bacillus thermoproteolyticus, UniProt P00800).
T1 sequence (P00800 whole entry): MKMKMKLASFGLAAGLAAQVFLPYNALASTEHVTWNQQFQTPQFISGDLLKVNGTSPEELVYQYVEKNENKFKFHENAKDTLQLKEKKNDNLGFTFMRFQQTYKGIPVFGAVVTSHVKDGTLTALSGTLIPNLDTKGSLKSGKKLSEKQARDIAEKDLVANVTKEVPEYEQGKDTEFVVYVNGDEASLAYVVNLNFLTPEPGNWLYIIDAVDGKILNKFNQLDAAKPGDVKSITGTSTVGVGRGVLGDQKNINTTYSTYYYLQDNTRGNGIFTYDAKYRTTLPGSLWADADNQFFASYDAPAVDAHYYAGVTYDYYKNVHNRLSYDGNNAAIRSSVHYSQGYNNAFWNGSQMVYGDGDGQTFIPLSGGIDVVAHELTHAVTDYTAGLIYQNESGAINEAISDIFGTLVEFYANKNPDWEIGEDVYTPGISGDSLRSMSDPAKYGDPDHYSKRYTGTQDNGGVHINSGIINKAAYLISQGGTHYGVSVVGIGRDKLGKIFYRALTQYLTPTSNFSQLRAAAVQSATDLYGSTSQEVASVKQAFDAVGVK
The experiment can be described thus: Inhibitory concentration required to inhibit thermolysin.

Neprilysin, sequence (P08473 whole entry): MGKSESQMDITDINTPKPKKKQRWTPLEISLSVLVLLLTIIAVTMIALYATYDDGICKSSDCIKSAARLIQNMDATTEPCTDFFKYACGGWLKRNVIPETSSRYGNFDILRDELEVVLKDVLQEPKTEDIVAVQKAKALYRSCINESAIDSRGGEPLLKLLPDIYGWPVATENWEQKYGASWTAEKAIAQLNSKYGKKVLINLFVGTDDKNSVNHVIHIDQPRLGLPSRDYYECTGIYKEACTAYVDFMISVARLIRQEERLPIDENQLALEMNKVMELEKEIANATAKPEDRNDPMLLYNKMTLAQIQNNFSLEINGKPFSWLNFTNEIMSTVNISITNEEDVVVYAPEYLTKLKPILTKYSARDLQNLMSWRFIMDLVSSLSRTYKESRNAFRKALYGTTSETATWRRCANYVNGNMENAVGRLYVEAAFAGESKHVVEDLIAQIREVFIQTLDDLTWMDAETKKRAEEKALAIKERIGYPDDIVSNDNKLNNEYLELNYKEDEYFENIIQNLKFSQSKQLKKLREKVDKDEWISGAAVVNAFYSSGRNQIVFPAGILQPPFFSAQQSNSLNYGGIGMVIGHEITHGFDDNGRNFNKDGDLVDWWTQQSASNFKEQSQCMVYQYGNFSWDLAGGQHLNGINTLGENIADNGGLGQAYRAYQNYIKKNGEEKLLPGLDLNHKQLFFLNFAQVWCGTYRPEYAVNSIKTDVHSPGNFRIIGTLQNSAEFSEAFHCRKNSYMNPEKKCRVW

Consider `O=C1N[C@H](C(=O)O)CCCCCCc2ccccc2C[C@H]1CS`, for which the results for the IC50 against Neprilysin and against Thermolysin were 27 nM and 1800 nM, respectively. On the same counts, the results for `O=C1N[C@H](C(=O)O)Cc2ccccc2CCCCCC[C@@H]1CS` are 67 nM and 40000 nM. On the same counts, the results for `O=C1N[C@@H](C(=O)O)Cc2ccccc2CCCCC[C@@H]1CS` are 99 nM and 49000 nM. As to `O=C1N[C@@H](C(=O)O)Cc2ccccc2CCCCCC[C@@H]1CS`, the IC50 on Neprilysin turned out to be 136 nM; against Thermolysin it was 16000 nM.

On to `O=C1N[C@H](C(=O)O)CCCCCCc2ccccc2C[C@@H]1CS`, for which the IC50 was 224 nM at Neprilysin and 41000 nM against Thermolysin.

Turning to `O=C1N[C@H](C(=O)O)CCCCc2ccccc2C[C@@H]1CS`, the IC50 at Neprilysin is 0.9 nM; at Thermolysin, 68 nM.

On to `O=C1N[C@H](C(=O)O)CCCCCc2ccccc2C[C@@H]1CS`, for which the results for the IC50 at Neprilysin and on Thermolysin were 3 nM and 600 nM, respectively. Turning to `O=C1N[C@H](C(=O)O)CCCCc2ccccc2C[C@H]1CS`, the figures for the IC50 on Neprilysin and on Thermolysin were 7 nM and 2300 nM, respectively. The corresponding values for `O=C1N[C@H](C(=O)O)CCCCCc2ccccc2C[C@H]1CS` are 4 nM and 4000 nM. In the case of `O=C1N[C@@H](C(=O)O)Cc2ccccc2CCCCCCC[C@@H]1CS`, the IC50 was > 10000 nM at Neprilysin and 60000 nM against Thermolysin. With `O=C1N[C@H](C(=O)O)Cc2ccccc2CCCCCCC[C@@H]1CS`, on Neprilysin, the IC50 stood at 900 nM. In the case of `O=C(O)CNC(=O)C(CS)Cc1ccccc1` (configuration not stated) [THIORPHAN], at Thermolysin, inhibition was half-maximal at 9500 nM (IC50).

As a reminder, the IC50 is the concentration at which inhibition is half-maximal. Low readings indicate greater potency, high ones weaker potency.
